{
  "source": "patent US12478613B2",
  "about": "“Selective MAO-B inhibitor DRG-MAOB-2 for use in treatment of neurodegenerative diseases” (BAHCESEHIR UNIVERSITESI, priority 2020, dated 2025)",
  "key": {"human MAO-B": {"molecular_target": "T1, human MAO-B (Homo sapiens, UniProt P27338)", "T1 sequence (P27338 1-520)": "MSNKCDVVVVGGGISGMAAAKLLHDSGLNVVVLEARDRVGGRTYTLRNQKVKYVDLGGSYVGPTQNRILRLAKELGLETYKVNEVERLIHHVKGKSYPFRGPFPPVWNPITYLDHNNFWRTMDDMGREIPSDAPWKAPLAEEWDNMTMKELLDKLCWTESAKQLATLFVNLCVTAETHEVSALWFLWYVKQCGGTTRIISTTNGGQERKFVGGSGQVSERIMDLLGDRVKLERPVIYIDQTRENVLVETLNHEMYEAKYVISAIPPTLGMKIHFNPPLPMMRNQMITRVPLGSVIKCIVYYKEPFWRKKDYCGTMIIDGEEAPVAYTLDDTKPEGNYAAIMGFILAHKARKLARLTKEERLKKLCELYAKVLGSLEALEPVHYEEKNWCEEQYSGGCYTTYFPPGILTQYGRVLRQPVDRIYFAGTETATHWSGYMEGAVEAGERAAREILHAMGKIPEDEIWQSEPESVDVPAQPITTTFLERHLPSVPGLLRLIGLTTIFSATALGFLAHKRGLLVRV", "assay": "MAO inhibitory assay (kynuramine, fluorescence), MAO-B", "format": "biochemical", "procedure": "(§1) MAO inhibitory activity was assayed using the method of Novaroli et al. with minor modifications. Briefly, 140 μL of 0.1 M potassium phosphate buffer (pH 7.4), 8 μL of 0.75 mM kynuramine, and 2 μL of a dimethyl sulfoxide (DMSO) inhibitor solution (final DMSO concentration of 1% (v/v) and final concentrations of the inhibitors of 0-1 μM), were preincubated at 37° C. for 10 min. Diluted human recombinant enzyme (50 μL) was then added to obtain a final protein concentration of 0.0075 mg/mL (MAO-A) or 0.015 mg/mL (MAO-B) in the assay mixture. The reaction mixture was further incubated at 37° C. and the reaction was stopped after 20 min by the addition of 75 μL of 2 M NaOH. The product generated by MAO, 4-quinolinol, is fluorescent and was measured at Ex 310 nm/Em 400 nm using a microplate reader (Thermo Scientific-Multiskan GO). Each data points of samples were triplicate. The sample solution was replaced with DMSO to provide a negative control."}, "human MAO-A": {"molecular_target": "T2, human MAO-A (Homo sapiens, UniProt P21397)", "T2 sequence (P21397 1-527)": "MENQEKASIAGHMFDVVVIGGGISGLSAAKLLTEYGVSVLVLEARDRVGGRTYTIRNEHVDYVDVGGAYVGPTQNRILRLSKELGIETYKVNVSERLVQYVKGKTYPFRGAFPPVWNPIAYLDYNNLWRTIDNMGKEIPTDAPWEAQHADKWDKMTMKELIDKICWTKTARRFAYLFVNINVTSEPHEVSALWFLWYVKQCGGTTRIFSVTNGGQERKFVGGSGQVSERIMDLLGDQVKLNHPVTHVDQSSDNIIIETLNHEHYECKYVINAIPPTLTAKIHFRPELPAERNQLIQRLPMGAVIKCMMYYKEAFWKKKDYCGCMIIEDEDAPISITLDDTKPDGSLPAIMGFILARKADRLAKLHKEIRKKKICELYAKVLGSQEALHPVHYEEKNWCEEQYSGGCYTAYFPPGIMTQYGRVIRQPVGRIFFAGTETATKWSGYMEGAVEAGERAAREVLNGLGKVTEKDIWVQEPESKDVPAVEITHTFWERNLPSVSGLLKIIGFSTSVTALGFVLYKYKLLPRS", "assay": "MAO inhibitory assay (kynuramine, fluorescence), MAO-A", "format": "biochemical", "conditions": "human recombinant enzyme, kynuramine substrate, 37° C., pH 7.4", "procedure": "as §1"}},
  "data": [
    {"smiles": "COc1ccc(-c2cc(C(=O)NCCn3cnc4ccccc43)n[nH]2)cc1OC", "note": "[compound of formula I]", "values": [
      {"measurement": "IC50", "setting": "human MAO-B; human recombinant enzyme, kynuramine substrate, 37° C., pH 7.4", "value": "3.22 ± 0.02", "unit": "nM"},
      {"measurement": "fold more potent binding to MOA-B compared to MOA-A", "setting": "human MAO-B; ratio of IC50 MAO-A / MAO-B", "value": "approximately 9 fold"},
      {"measurement": "IC50", "setting": "human MAO-A", "value": "29.5 ± 1.1", "unit": "nM"}
    ]}
  ]
}
